Data on one compound can be found in patent US8791158B2, “Methods of treating meibomian gland dysfunction” (GTX, Inc., priority 2010, dated 2014).

This assay relates to acute, orchiectomized (ORX) rabbit model. Nature of the assay: Tear fatty acid composition (palmitate:stearate ratio) after Compound 2 or TP, Example 3. In kind it is in vivo. To be noted: ORX rabbits; for Tear palmitate:stearate ratio after 4 week washout: then untreated 4 weeks. The source says:
The goal of this study was to compare the effect of Compound 2 to testosterone propionate (TP) on tear composition in an acute, orchiectomized (ORX) rabbit model.
Fifteen New Zealand white rabbits weighing approximately 3 lbs were allowed to acclimate for 4 weeks before the start of the study. Animals were weighed on day 0 of the study, randomized according to body weight and allotted to the following dose groups:
Pre-dose tear and blood samples were collected. Animals from groups 2-5 were to premedicated with glycopyrrolate (0.02 mg/kg) and then anesthesia was induced with a combination of ketamine (15 mg/kg): medetomidine (0.25 mg/kg).
Anesthesia was maintained with isoflurane (1 liter/hr). Orchiectomy was performed using a scrotal incision. Animals were revived from anesthesia using atipamezole (1 mg/kg) SQ. Analgesia was provided with buprenorphine (0.05 mg/kg) Immediately after the animals had recovered from anesthesia, they received their first dose with the appropriate test articles as indicated above.
Drug dosing was done once daily for 14 days. Blood was collected at 60 minutes post administration of the last dose of drug and plasma separated for HPLC analysis of parent drug concentrations.
Tears were collected using Schirmer tear strips (Alcon, Tex.) on day 0 before surgery, 24 hours after the last administration of drug (day 15) and also at 42 days (6 weeks after start of study). The tears were stored at −80° C. prior to lipid analysis.
Lipids were hydrolyzed, extracted from the Schirmer strips, derivatized, and subjected to gas chromatography with flame ionization detector (GCFID) to evaluate the lipid composition.
The samples were evaluated for the presence of 28 saturated and unsaturated fatty acids that included methyl caprate (C10:0), methyl laurate (C12:0), methyl 11-dodecenoate (C12:1), methyl myristate (C14:0), methyl myristoleate (C14:1), methyl palmitate (C16:0), methyl palmitoleate (C16:1), methyl stearate (C18:0), methyl oleate (C18:1), methyl vaccenate (C18:1), methyl linoleate (C18:2), methyl gamma linoleate (C18:3), methyl linoleate (C18:3), methyl arachidate (C20:0), methyl 11-eicosenoate (C20:1), methyl 11,14 eicosadinoate (C20:2), methyl 8,11,14 eicosatrienoate (C20:3), methyl eicosapentaenoate (C20:5), methyl behenate (C22:0), methyl erucate (C22:1), methyl 13,16 docosaenoate (C22:2), methyl docosatetraenoate (C22:4), methyl docosapentaenoate (C22:5), methyl docosahexaenoate (C22:6), methyl lignocerate (C24:0), and methyl nervonate (C24:1).
The area under the curve for each individual peak was determined using GC ChemStation software. […] These samples were then washed with a saturated solution of NaCl+0.1% formic acid (FA). […] These samples were all in the predose tear group. Two more samples from the predose group and one sample from Vehicle Intact treated group had small but clear and well to separated peaks that were included in the analysis.
To normalize for the tear content, the lipid composition was expressed as a ratio of the lipid that was most affected by castration (palmitate) to one which remained relatively constant (stearate). Blood was also collected on day 15 (24 hours after last drug administration) of the study, plasma separated and analyzed for Compound 2.
The last dose of drug or vehicle was administered on day 15 of the study Animals were left untreated for 4 weeks (washout period) before tear samples were collected again on Schirmer tear strips and analyzed as indicated above.

Take `C[C@](O)(COc1ccc(C#N)c(F)c1)C(=O)Nc1ccc(C#N)c(C(F)(F)F)c1` [Compound 2, (S)—N-(4-cyano-3-(trifluoromethyl)phenyl)-3-(4-cyano-3-fluorophenoxy)-2-hydroxy-2-methylpropanamide]: where the note is “2.5 mg/kg, 14 days”, the “Increase of tear palmitate:stearate ratio relative to intact animals” value was “two times that of intact animals”. Besides, the “Tear palmitate:stearate ratio after 4 week washout” value by setting is: (SQ 2.5 mg/kg for two weeks) 1.47±0.172; (topical 2.5 mg/kg for two weeks) 1.66±0.426.
